Assay results taken from article PMC9798707, “Targeting SOST using a small-molecule compound retards breast cancer bone metastasis” (Molecular Cancer, 2022).

Molecular target: T1, SOST (Homo sapiens, UniProt Q9BQB4)
T1 construct: commercial recombinant SOST (SinoBio 10593-H07H), biotinylated and immobilized on Octet SSA biosensors
T1 sequence (Q9BQB4 24-213): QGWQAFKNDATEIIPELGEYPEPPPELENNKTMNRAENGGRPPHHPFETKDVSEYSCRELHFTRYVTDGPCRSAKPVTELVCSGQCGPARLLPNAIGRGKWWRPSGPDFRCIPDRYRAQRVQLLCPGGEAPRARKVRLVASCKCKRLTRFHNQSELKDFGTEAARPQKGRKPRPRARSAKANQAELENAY
Test: biochemical
Parameters: biolayer interferometry (Octet K2), compound binding to immobilized biotinylated SOST, multi-concentration
Conditions: multi-concentration BLI, 30 C
Method: The affinity of S6 binding to SOST was measured, as described previously using an Octet K2 instrument (ForteBio). All assays were run at 30 °C with continuous shaking of 1000 RPM using the assay buffer of 0.1% BSA, 0.01% Tween-20 and 1% DMSO in PBS. SOST (10,593-H07H, SinoBio, Beijing, China) at 0.15 mg/ml was dissolved in sterile water, biotinylated and immobilized onto the Octet SSA biosensors. S6 (C29H24N6O2S, molecular weight 520.62, Chemdiv, USA) was dissolved in PBS and adjusted to different concentrations for BLI. After each round of association and disassociation, the SOST-contained sensors were washed with the assay buffer for 10 min to remove nonspecifically bound molecules. Raw kinetic data were obtained. The kon and koff values were analyzed using the software provided and the Kd values were calculated, based on double reference subtraction. We next sought to model the interaction of SOST with STAT3 and identify its inhibitors from a small-molecule chemical library (Fig. 4A). […] Subsequently, we performed virtual screening for compounds that might block the binding of SOST to STAT3 (Fig. 4C). We screened approximately 120,000 compounds and obtained 38 candidates. We tested single-concentration of them in BLI test. Data from 35 of these compounds are shown in Figure S4 and SI Table 1, except for compounds 2, 10, and 25, which could not be detected due to poor solubility. […] compounds (6, 11, 12, 17, 22, 24, 34, 38) were screened by multi-concentration gradients to obtain R2, Kd, kdis, and response parameters (Fig. 4D-E, Fig. S5 and SI Table 2). Four compounds, 6, 11, 28, and 34, were selected for drug sensitivity testing (Fig. 4F and Fig. S5). […] S6 boudn to SOST with a high affinity (Fig. 4G).

- Kd: 399 µM
- kon: 765 M⁻¹ s⁻¹
- koff (read-out: kdis): 0.305 s⁻¹
Structure (SMILES): Cc1ccc(-c2nnc(Nc3ccccc3)c3ccccc23)cc1S(=O)(=O)NCc1nc2ccccc2[nH]1 [compound 6, S6]
